Data published in US6030950A, “Pharmaceutical therapeutic use of glutathione derivative” (priority 1987, dated 2000).
Where two headings read alike, the source gives them in different places.

How the values were obtained:
human erythrocytes = conditions: incubation with 0.5 mg of reduced glutathione, 37° C., 30 minutes; 10 mL heparinised venous blood; n=20, average and standard deviation
Experimental: 1.1) In vitro experiment with human erythrocytes to improve and normalize the redox behavior:
Human venous blood (10 mL) was taken from each of 20 patients with different diseases and prevented from clotting by the addition of heparin.

[1] = cited from earlier work
[2] = cited from earlier work; remark: listed apart in the source
[3] = in vivo
glutathione reductase = glutathione reductase (Homo sapiens, UniProt P00390); conditions: incubation with 0.5 mg reduced glutathione, 37° C., 30 minutes; n=22, average and standard deviation
glutathione reductase, sequence (P00390 44-522): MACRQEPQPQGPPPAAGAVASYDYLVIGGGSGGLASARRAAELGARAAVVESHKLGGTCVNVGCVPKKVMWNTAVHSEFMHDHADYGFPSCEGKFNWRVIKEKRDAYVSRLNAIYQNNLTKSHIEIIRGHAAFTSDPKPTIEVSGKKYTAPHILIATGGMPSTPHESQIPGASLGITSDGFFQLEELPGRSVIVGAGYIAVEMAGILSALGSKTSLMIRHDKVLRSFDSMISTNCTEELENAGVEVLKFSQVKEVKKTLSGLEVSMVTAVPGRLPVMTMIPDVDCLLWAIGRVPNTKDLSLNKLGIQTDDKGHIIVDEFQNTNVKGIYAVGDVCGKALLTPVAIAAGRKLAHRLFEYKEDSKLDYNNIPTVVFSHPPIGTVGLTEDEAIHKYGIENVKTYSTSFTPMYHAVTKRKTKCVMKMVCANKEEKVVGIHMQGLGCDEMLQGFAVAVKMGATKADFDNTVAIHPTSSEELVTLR
Source text: (§1) 1.2) In vitro experiment on cell systems of human erythrocytes Under the same conditions as those for the experiment described above, the enzymes, glucose-6-phosphate dehydrogenase and glutathione reductase, from the erythrocytes of 22 patients, were investigated in vitro. n=22 (average value and standard deviation are given)

[4] = biological target: glucose-6-phosphate dehydrogenase (Homo sapiens, UniProt P11413); conditions: incubation with 0.5 mg reduced glutathione, 37° C., 30 minutes; n=22, average and standard deviation
glucose-6-phosphate dehydrogenase, sequence (P11413 2-515 limits assumed): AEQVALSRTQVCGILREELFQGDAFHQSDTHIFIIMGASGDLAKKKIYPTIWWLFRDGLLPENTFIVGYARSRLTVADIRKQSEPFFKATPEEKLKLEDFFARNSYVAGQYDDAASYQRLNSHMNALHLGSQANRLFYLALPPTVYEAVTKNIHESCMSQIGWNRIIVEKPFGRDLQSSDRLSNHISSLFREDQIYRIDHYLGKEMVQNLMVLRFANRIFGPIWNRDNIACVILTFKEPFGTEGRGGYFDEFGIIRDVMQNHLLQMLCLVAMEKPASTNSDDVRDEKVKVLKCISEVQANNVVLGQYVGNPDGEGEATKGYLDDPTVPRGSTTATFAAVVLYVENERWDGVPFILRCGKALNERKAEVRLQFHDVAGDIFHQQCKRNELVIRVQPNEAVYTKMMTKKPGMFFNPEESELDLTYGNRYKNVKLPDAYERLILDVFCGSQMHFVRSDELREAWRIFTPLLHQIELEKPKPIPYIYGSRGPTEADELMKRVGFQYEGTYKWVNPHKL
Source text: as §1

[5] = rabbit ear venous blood, oxygen deficiency stress, 10 mg/kg, 5-10 minutes after administration; n=30
Experimental: 2.1) Animal Experiments with rabbits to improve and/or normalize the redox status of the blood:
In 5 different rabbits, the following parameters were measured by the method and with the instrument of VINCENT in 30 experiments in venous blood:
redox potential E H or electron potential: rH2
The values were measured in the venous blood of the ear after a defined oxygen deficiency stress.
The following values were determined 5-10 minutes after the glutathione one was administered:
Boundary conditions: Temperature of 20° C., air pressure of 767 mm Hg.

[6] = system: malignant melanoma from man; conditions: 300 mg three times per week
Source text: 2.4) Experiment with 40 healthy gray mice after transplantation of a malignant melanoma from person.
Forty healthy gray mice were inoculated with 10^6 malignant melanoma cells each.
III.1 Experiment with 40 healthy gray mice after transplantation of a malignant melanoma from person.

[7] = human blood, oxygen deficiency stress, 600 mg slowly intravenously, 10 minutes after administration; n=50
Experimental: 2.2) Self-experiment on man to improve and/or normalize the redox status of the blood:
After a defined oxygen deficiency stress, the same parameters were determined in human blood as in the trial described above. In all 50 trials were carried out on different days
After that, glutathione was slowly administered intravenously in an amount of 600 mg.
Boundary conditions: Temperature of 20° C., air pressure of 758-770 mm Hg.

N[C@@H](CCC(=O)N[C@@H](CS)C(=O)NCC(=O)O)C(=O)O [reduced glutathione, gamma-glutamyl-cysteinyl-glycine]
content of intraerythrocytic reduced glutathione, value of incubation (human erythrocytes): 1.99±0.15 mU
solubility in ethanol ([1]; ethanol): soluble
solubility in water and physiological salt solution ([1]; water and physiological salt solution): readily soluble
pK value for COOH(1) ([2]; COOH(1)): 3.53
pK value for COOH(2) ([2]; COOH(2)): 2.12
pK value for NH3+ ([2]; NH3^+): 8.66
pK value for SH ([2]; SH): 9.66
toxicity of the therapeutic dosage [3]: nontoxic
glutathione reductase, value after incubation (glutathione reductase): 11.3±1.2 U/10^11 erys.
glucose-6-phosphate dehydrogenase, value after incubation [4]: 179±16 mU/10^9 erys.
redox potential or electron potential rH2 [5]: 21.8 ± 0.95
further animals died within 20 days ([6]; 30 mice, 10^6 melanoma cells): five
further animals died within 30 days ([6]; 30 mice, 10^6 melanoma cells): seven
animals died within 15 days ([6]; 30 mice, 10^6 melanoma cells, untreated controls died within 8-12 days): three
share of treated animals that survived the period of observation ([6]; 30 days after inoculation): 50%
animals that survived the period of observation ([6]; of 30 treated mice, 30 days after inoculation): Fifteen
redox potential or electron potential rH2 [7]: 23.1 ± 1.4
